From patent US9522886B2, “Pyridine derivatives” (Hoffmann-La Roche Inc., priority 2012, dated 2016) come the findings set out here.

For one test, the target named is human CB2 receptors (Homo sapiens (Human), UniProt P34972). The experiment in a line: cAMP assay, CHO cells expressing human CB2 receptors. It is filed as cell-based. The following applies: functional cAMP assay, CHO cells expressing human CB2; read-out: human CB2 EC50. (In general: cAMP levels reflect the balance of adenylyl cyclase and phosphodiesterase activity.)
human CB2 receptors, sequence (P34972 whole entry): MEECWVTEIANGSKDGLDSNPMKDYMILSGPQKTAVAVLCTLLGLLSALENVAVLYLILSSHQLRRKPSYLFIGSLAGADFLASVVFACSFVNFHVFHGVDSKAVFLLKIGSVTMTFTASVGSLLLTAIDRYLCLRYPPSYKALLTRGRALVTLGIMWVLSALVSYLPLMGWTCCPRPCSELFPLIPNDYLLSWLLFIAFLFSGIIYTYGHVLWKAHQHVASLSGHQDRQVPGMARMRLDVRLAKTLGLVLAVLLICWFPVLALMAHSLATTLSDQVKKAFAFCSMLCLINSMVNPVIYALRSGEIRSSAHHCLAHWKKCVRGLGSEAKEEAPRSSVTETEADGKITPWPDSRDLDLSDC

The next test concerns the target human CB1 receptors (Homo sapiens (Human), UniProt P21554). As to the kind of experiment: cAMP assay, CHO cells expressing human CB1 receptors. It is filed as cell-based. As to conditions: functional cAMP assay, CHO cells expressing human CB1; read-out: human CB1 EC50.

pEC50: −log10 of the molar value. Where only a bound is given, the exact number is not on record here.

human CB1 receptors, sequence (P21554 whole entry): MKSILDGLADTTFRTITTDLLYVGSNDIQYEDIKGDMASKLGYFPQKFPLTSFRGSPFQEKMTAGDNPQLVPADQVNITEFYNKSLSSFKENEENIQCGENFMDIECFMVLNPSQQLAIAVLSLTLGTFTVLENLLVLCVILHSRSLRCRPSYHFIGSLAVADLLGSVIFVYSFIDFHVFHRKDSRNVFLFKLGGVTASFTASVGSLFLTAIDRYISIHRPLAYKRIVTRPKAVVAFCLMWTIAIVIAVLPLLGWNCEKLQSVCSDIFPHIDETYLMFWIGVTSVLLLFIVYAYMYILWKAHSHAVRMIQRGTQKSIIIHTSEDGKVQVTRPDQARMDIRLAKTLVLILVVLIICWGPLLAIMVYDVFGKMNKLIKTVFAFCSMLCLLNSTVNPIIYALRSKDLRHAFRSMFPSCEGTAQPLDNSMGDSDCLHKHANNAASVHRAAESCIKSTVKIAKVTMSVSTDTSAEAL

Broadly, the pEC50 is the EC50 on a negative log10 scale, so that one unit is a factor of ten. `COC(=O)CC1(NC(=O)c2ccc(N3CC(F)(F)C3)c(OCC3CC3)n2)CCC1` [Example 68, Methyl 2-[1-[[6-(cyclopropylmethoxy)-5-(3,3-difluoroazetidin-1-yl)pyridine-2-carbonyl]amino]cyclobutyl]acetate]: the negative logarithm of the EC50 (pEC50) on human CB2 receptors is 8.96; on human CB1 receptors, below 5.00.
`NC(=O)CC1(NC(=O)c2ccc(C3CC3)c(OCC3CC3)n2)CCOC1` (centres unmarked) [Example 88, N-[3-(2-Amino-2-oxoethyl)oxolan-3-yl]-5-cyclopropyl-6-(cyclopropylmethoxy)pyridine-2-carboxamide]: the negative logarithm of the EC50 (pEC50) at human CB2 receptors is 8.70; at human CB1 receptors it was below 5.00.
Take `CNC(=O)CC(CCc1ccccc1)NC(=O)c1ccc(N2CC(F)(F)C2)c(OCC2CC2)n1` (centres unmarked) [Example 8, 6-Cyclopropylmethoxy-5-(3,3-difluoro-azetidin-1-yl)-pyridine-2-carboxylic acid (1-methylcarbamoylmethyl-3-phenyl-propyl)-amide]: the pEC50 at human CB2 receptors was 6.52; on human CB1 receptors it was below 5.00.
The like results for `NC(=O)CC1(NC(=O)c2ccc(N3CC(F)(F)C3)c(OCC3CC3)n2)CCS(=O)(=O)CC1` [Example 63, N-[4-(2-Amino-2-oxoethyl)-1,1-dioxothian-4-yl]-6-(cyclopropylmethoxy)-5-(3,3-difluoroazetidin-1-yl)pyridine-2-carboxamide] were, in that order, 7.26 and below 5.00.
As for `O=C(O)CC1(NC(=O)c2ccc(N3CC(F)(F)C3)c(OCC3CC3)n2)CCOCC1` [Example 57, (4-{[6-Cyclopropylmethoxy-5-(3,3-difluoro-azetidin-1-yl)-pyridine-2-carbonyl]-amino}-tetrahydro-pyran-4-yl)-acetic acid], the pEC50 is 8.52 on human CB2 receptors and below 5.00 at human CB1 receptors.
The like results for `CCCCCC(CC(=O)NC)NC(=O)c1ccc(N2CC(F)(F)C2)c(OCC2CC2)n1` (centres unmarked) [Example 7, 6-Cyclopropylmethoxy-5-(3,3-difluoro-azetidin-1-yl)-pyridine-2-carboxylic acid (1-methylcarbamoylmethyl-hexyl)-amide] were, in that order, 7.25 and below 5.00.
The like results for `NC(=O)CC1(NC(=O)c2ccc(N3CC(F)(F)C3)c(OCC3CC3)n2)CNC1` [Example 65, N-[3-(2-Amino-2-oxoethyl)azetidin-3-yl]-6-(cyclopropylmethoxy)-5-(3,3-difluoroazetidin-1-yl)pyridine-2-carboxamide] were, in that order, 6.35 and below 5.00.
